This is an account of results in patent US8057829B2, “Methods for repelling insects using sesquiterpene hydrocarbons and their derivatives” (Sterling International Inc., priority 2008, dated 2011).

Assay [1] concerns housefly (Musca domestica) antenna. Description: GC-EAD antennal response, housefly. The conditions noted are these: synthetic mixture, about 100 ng of each compound.
For assay [2], the system named is female mosquito Culex pipiens antenna. Description: GC-EAD antennal response, Culex pipiens. The conditions noted are these: female Culex pipiens antennae; about 100 ng of each compound; responses weak, but repeatable; FIGS. 7 and 8. The protocol:
The GC-EAD responses of the female mosquito Culex pipiens antenna were tested on a synthetic mixture of 1-octen-3-ol, and two sesquiterpene hydrocarbons, β-caryophyllene and isocaryophyllene, with about 100 ng of each compound in the mixture.
The GC-EAD responses of the female mosquito Culex pipiens antenna were tested on a synthetic mixture of 1-octen-3-ol, and representative sesquiterpene hydrocarbons and derivatives including (+)-longipinene, (−)-isolongifolene, (+)-longifolene, β-caryophyllene, and isolongifolenone, with about 100 ng of each compound in the mixture.
Antennal responses were weak, but repeatable, thus are considered to be true responses.
The following procedures were employed to test the EAD response of an insect antenna to a repellent compound. The GC-EAD technique provides an efficient tool for screening behaviorally active repellents. Several synthetic mixtures of potential insect repellent candidates, mostly sesquiterpene hydrocarbons and derivatives, were analyzed in splitless mode using a Varian CP-3800 GC equipped with a polar column (Innowax; 1.0 μm film thickness, 30 m×0.53 mm ID; J & W Scientific), and a 1:1 effluent splitter that allowed simultaneous flame ionization detection (FID) and EAD of the separated volatile compounds. Helium was used as the carrier gas, and the injector temperature was 220° C. The column temperature was 50° C. for 2 min, rising to 240° C. at 10° C./min, then held for 10 min. The outlet for the EAD was held in a humidified air stream flowing at 0.5 liter/min. over an antennal preparation. A glass capillary indifferent electrode filled with Beadle-Ephrussi Ringer, and grounded via a silver wire, was inserted into the severed insect's head with the antennae. A similar recording electrode connected to a high-impedance DC amplifier with automatic baseline drift compensation was placed in contact with the distal end of one antenna (Zhang et al., Chemoecology, 10:69-80 (2000)). The antennal signals were stored and analyzed on a PC equipped with a serial IDAC interface box and the program EAD ver. 2.5 (Syntech, Hilversum, The Netherlands). The compound 1-octen-3-ol (known attractant for many flies and mosquitoes) was included in most of the synthetic mixtures, as a positive control. The results of the experiments are shown in FIGS. 1-10 and described above.

The test system of assay [3] is female antennae of sand fly Phlebotomus papatasi and mosquitoes Aedes aegypti, Anopheles gambiae, Anopheles stephensi. Description: GC-EAD responses of sand fly and three mosquitoes to synthetic mixtures. As to conditions: about 100 ng of each compound, on one or more of the sand fly or the mosquitoes, FIGS. 9 and 10. The method in brief: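 Female antennae recorded by GC-EAD (split with FID) against synthetic mixtures with about 100 ng of each compound, 1-octen-3-ol as positive control; polar Innowax column, 50° C 2 min then 10° C/min to 240° C. Effluent in humidified air at 0.5 liter/min over severed-head preparation with Ringer-filled electrodes.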

In assay [4] the test system is Aedes aegypti. The experiment in a line: Y-tube olfactometer behavioral bioassay (spatial repellency). The class given is in vivo. As to conditions: for Number of mosquitoes in each arm: Blank / Number of mosquitoes in each arm: Bottom / Number of mosquitoes in each arm: Repellent: Aedes aegypti females, release rate per chemical (1-60 mg/day), 10 min; for Number of mosquitoes in each arm: Repellent: two replicates pooled; for SAI (Spatial Activity Index): Aedes aegypti, (Nc − Nt)/(Nc + Nt), −1 to 1, zero indicating no response. The method in brief: (§1)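 Female insects (25-40 per run; mosquitoes 6-10 days old, sand flies 3-10 days) released into a CO2-baited Y-tube holding a treatment dispenser in one arm and a blank in the other; arm counts taken after 10 min at 23-25° C. Arms swapped in a repeat run; pooled data tested by χ2 (df=1).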

For assay [5], the system named is Anopheles stephensi. Described as above. The class given is in vivo. As to conditions: for Number of mosquitoes in each arm: Repellent / Number of mosquitoes in each arm: Blank / Number of mosquitoes in each arm: Bottom: Anopheles stephensi females; for SAI (Spatial Activity Index): Anopheles stephensi. In short, it runs like this: as §1
Assay [6] has as its system Phlebotomus papatasi. The assay is described as above. The class given is in vivo. The conditions noted are these: for SAI (Spatial Activity Index): Phlebotomus papatasi; for Number of mosquitoes in each arm: Repellent: Phlebotomus papatasi (sand fly) females, release rate per chemical (1-35 mg/day); for Number of mosquitoes in each arm: Repellent / Number of mosquitoes in each arm: Blank / Number of mosquitoes in each arm: Bottom: 10 min; for Number of mosquitoes in each arm: Blank / Number of mosquitoes in each arm: Bottom: Phlebotomus papatasi females, release rate per chemical. In short, it runs like this: as §1

Assay [7] concerns Aedes Aegypti, Anopheles stephensi and the sand fly P. papatasi. Description: Y-tube bioassay, statements pooled for the three species. The conditions noted are these: clove oil ca. 10 mg/day, patchouli oil 15 mg/d, sesquiterpenes 1 to 35 mg/d release. The format is in vivo, Aedes aegypti; Anopheles stephensi; Phlebotomus papatasi. As to the method:
Aegypti and An. stephensi, and one species of sand fly, P. papatasi. Both the mosquitoes and the sand flies used in the study were from colonies maintained at the Walter Reed Army Institute of Research, Department of Entomology, Silver Spring, Md. This Y-tube bioassay system, equipped with CO2-enriched air (ca. 1 l/min) as an attractant, was made from three clear acrylic tubes (4″ diameter; 12″ length) with symmetrical 120° angles among the three tube arms; and a screen butterfly valve on the top part of the bottom releasing tube. These spatial repellency tests were carried out during 8:00 am-12:00 pm (photophase) time period for Ae. aegypti and 1:00-5:00 pm (shifted scotophase) time period for the species of night-flying mosquitoes and sand fly in a temperature and humidity controlled testing room (23-25° C. and 20-40% RH). Female mosquitoes or sand flies were stored at ˜25-26° C., 50-89% RH, 12:12 hr. (L/D), fed with 10% sucrose solution before testing. The candidate chemical (individual or mixture) dispenser and a blank control were placed in the upper left or right arm of the Y-tube before releasing 25-40, 6 to 10 day-old female mosquitoes (or 3 to 10 day-old sand flies) into the bottom tube via a small hole. After a 30-60 sec acclimation period, the butterfly screen valve (door) on the top of the bottom tube was opened. After 10 min., the valve was closed and the numbers of mosquitoes or sand flies in each arm (including the bottom tube) were counted. In order to minimize the position effect, the same experiment was repeated once with the treatment and blank control arms shifted using a new (clean) Y-tube olfactometer and a new batch of mosquitoes/sand flies. Data from these two replicates were pooled for χ2 goodness of fit test (df=1) between the treatment and blank control.

The mark [8] stands for this setting: female housefly antenna, FIG. 3.
The mark [9] stands for this setting: release rate per chemical (1-60 mg/day; β-Caryophyllene 10 mg/day), 10 min.
[10] abbreviates: release rate per chemical (β-Caryophyllene 10 mg/day), 10 min.

Each structure is given as a SMILES string.

For `C=C1C2CCC3[C@H]2C(C)(C)CCC[C@]13C` (single isomer, unassigned; (+)) [(+)-Longifolene], the GC-EAD antennal activity entry in assay [1] (setting [8]) is recorded as “active”; in assay [2] it was “active”; in assay [3], “antennally active”. Further, the “Number of mosquitoes in each arm: Blank” value in assay [4] came to 20; in assay [5] (setting [10]) it was 23; in assay [6], 17. Further, the figures for the “Number of mosquitoes in each arm: Bottom” value in assay [4], in assay [5] (setting [10]) and in assay [6] were 37, 29 and 41, respectively. Further, the “Number of mosquitoes in each arm: Repellent” value (from here on “Number … Repellent”) stood at 5 in assay [4], 9 in assay [5] (setting [9]) and 5 in assay [6]. The “SAI (Spatial Activity Index)” value in assay [4] is given as 0.60; in assay [5] (β-Caryophyllene 10 mg/day), 0.44; in assay [6], 0.55. For the same compound, the “spatial repellency, in words” value in assay [7] is recorded as “showed spatial repellency effects”.

Consider `C=C1CC/C=C(/C)CC[C@@H]2[C@@H]1CC2(C)C` [Isocaryophyllene, isocaryophyllene], for which the GC-EAD antennal activity result in assay [1] (male housefly antenna, FIG. 4) is listed as “EAD-active”; in assay [2] it was “active”; in assay [3], “antennally active”. Besides, the entries for the “Number of mosquitoes in each arm: Blank” value in assay [4], in assay [5] (setting [10]) and in assay [6] were 35, 21 and 64, respectively. Further, the “Number of mosquitoes in each arm: Bottom” value in assay [4] was 31; in assay [5] (setting [10]), 26; in assay [6], 34. In addition, the results for the “Number … Repellent” value in assay [4], in assay [5] (setting [9]) and in assay [6] were 8, 8 and 40, respectively. Besides, the “SAI (Spatial Activity Index)” value is 0.63 in assay [4], 0.45 in assay [5] (β-Caryophyllene 10 mg/day) and 0.23 in assay [6]. In addition, the “spatial repellency, in words” value in assay [7] is on record as “showed spatial repellency effects”.

Take `C=C1CC/C=C(\C)CC[C@@H]2[C@@H]1CC2(C)C` [β-Caryophyllene, β-caryophyllene]: the GC-EAD antennal activity entry is listed as “active” in assay [1] (setting [8]); “EAD-active” in assay [1] (male housefly antenna, FIG. 4); “active” in assay [2]; “antennally active” in assay [3]. The “Number of mosquitoes in each arm: Blank” value is on record as 20 in assay [4]; 22 in assay [5] (release rate 35 mg/day, PE-Bag); 23 in assay [5] (setting [10]); 33 in assay [6]. In addition, the “Number of mosquitoes in each arm: Bottom” value in assay [4] is given as 40; in assay [5] (release rate 35 mg/day, PE-Bag) it was 43; in assay [5] (setting [10]) it was 26; in assay [6], 25. The “Number … Repellent” value in assay [4] was 6; in assay [5] (release rate 35 mg/day, PE-Bag) it was 5; in assay [5] (setting [9]) it was 19; in assay [6], 9. Further, the “SAI (Spatial Activity Index)” value was determined as 0.54 in assay [4], 0.63 in assay [5] (release rate 35 mg/day), 0.10 in assay [5] (β-Caryophyllene 10 mg/day) and 0.57 in assay [6]. For the same compound, the “spatial repellency, in words” value in assay [7] was “showed spatial repellency effects”.
